Test results taken from article PMC10800876, “Evaluation of proline-rich antimicrobial peptides as potential lead structures for novel antimycotics against Cryptococcus neoformans” (Frontiers in Microbiology, 2024).
In brackets after ≈: the same amount, converted by molar mass. Like-named read-outs stand apart in the source and are kept apart here. Starred links: 1 amine or outer side, 2 acyl side, 3 side chain; linkers in the order of their positions; H or OH if unused. Non-standard residues stand in square brackets, D forms with d. Residues, ends and D or L forms follow the SMILES beside them. *: point of attachment. 5FAM = O=C1OC2(c3ccc(O)cc3Oc3cc(O)ccc32)c2ccc(C(=O)*)cc21; δOrn(α-TMG) = CN(C)C(=N[C@@H](CCCN[*:1])C(=O)[*:2])N(C)C; Ac6c = NC1(C(=O)O)CCCCC1

Key:
[1] = test system: C. neoformans KN99α (serotype A, mating type MATα); details: for MIC (μmol/L) KN99α 48 h: KN99α (serotype A, mating type MATα, 48 h)
[2] = test system: C. neoformans H99 (serotype A); details: for MIC (μmol/L) H99 24 h: H99 (serotype A, 24 h)
[3] = test system: C. neoformans 1841 (serotype D); details: for MIC (mg/L) 24 h, Cf-labeled peptides: 1841 (serotype D, 24 h); for MIC (after 48 h) / MIC (mg/L) 48 h, Cf-labeled peptides: 1841 (serotype D, 48 h)
[4] = KN99α (serotype A, mating type MATα, 24 h)
[5] = 1841 (serotype D, 24 h, pH 7.5)
[6] = 1841 (serotype D, 48 h, pH 7.5)
[7] = broth microdilution, 50% SAB in phosphate buffer, 30°C, read after 24 h, n = 6
[8] = broth microdilution, 50% SAB in phosphate buffer, 30°C, read after 48 h, n = 6

CC(C)C[C@H](NC(=O)[C@@H]1CCCN1C(=O)[C@H](CCCNC(=N)N)NC(=O)[C@@H]1CCCN1C(=O)[C@H](CCCNC(=N)N)NC(=O)[C@@H]1CCCN1C(=O)[C@@H]1CCCN1C(=O)[C@H](CCCNC(=N)N)NC(=O)[C@@H]1CCCN1C(=O)[C@@H](NC(=O)[C@@H](N)CCCNC(=N)N)C(C)C)C(=O)N[C@@H](Cc1ccc(O)cc1)C(=O)N1CCC[C@H]1C(=O)N[C@@H](CCCNC(=N)N)C(=O)N1CCC[C@H]1C(=O)N[C@@H](CCCCN)C(=O)N[C@@H](CC(=O)O)C(=O)N1CCC[C@H]1C(=O)N[C@@H](CCCNC(=N)N)C(=O)NC1(C(N)=O)CCCCC1 [Chex1Arg20 rev] (H-RVPRPPRPRPLYPRPKDPR[Ac6c]-NH2; N-terminus assumed)
MIC (μmol/L) KN99α 24 h [1, 4]: 3.2 µmol/L (≈ 7.92 µg/mL) | MIC (μmol/L) KN99α 48 h [1]: 6.5 µmol/L (≈ 16.1 µg/mL) | MIC (μmol/L) H99 24 h [2]: 3.2 µmol/L (≈ 7.92 µg/mL) | MIC (mg/L) H99 48 h ([2]; H99 (serotype A, 48 h)): 8 to 16 mg/L | MIC (μmol/L) H99 48 h ([2]; H99 (serotype A, 48 h)): 3.2 to 6.5 µmol/L | MIC (μmol/L) 1841 24 h [3, 5]: 3.2 µmol/L (≈ 7.92 µg/mL) | MIC (μmol/L) 1841 48 h [3, 6]: 3.2 µmol/L (≈ 7.92 µg/mL)

CC[C@H](C)[C@H](NC(=O)[C@H](Cc1ccc(O)cc1)NC(=O)[C@@H](NC(=O)[C@@H]1CCCN1C(=O)[C@H](CCCNC(=N)N)NC(=O)[C@H](CC(N)=O)NC(=O)[C@H](CC(N)=O)NC(=O)CNC(=O)c1ccc2c(c1)C(=O)OC21c2ccc(O)cc2Oc2cc(O)ccc21)C(C)C)C(=O)N1CCC[C@H]1C(=O)N[C@@H](CCC(N)=O)C(=O)N1CCC[C@H]1C(=O)N[C@@H](CCCNC(=N)N)C(=O)N1CCC[C@H]1C(=O)N1CCC[C@H]1C(=O)N[C@@H](Cc1c[nH]cn1)C(=O)N1CCC[C@H]1C(=O)N[C@@H](CCCNC(=N)N)C(=O)N[C@@H](CC(C)C)C(=O)O [Cf-Apidaecin 1b] (5FAM-GNNRPVYIPQPRPPHPRL-OH)
MIC (mg/L) 24 h, Cf-labeled peptides [3]: >128 mg/L | MIC (after 48 h) [3]: > 61 µM | MIC (mg/L) 48 h, Cf-labeled peptides [3]: >128 mg/L

CC[C@H](C)[C@H](NC(=O)CNC(=O)[C@H](CCC(=O)O)NC(=O)[C@H](CCCCN)NC(=O)[C@H](CC(C)C)NC(=O)[C@H](CCCCN)NC(=O)[C@H](CCCCN)NC(=O)[C@@H](NC(=O)CNC(=O)[C@H](CCC(N)=O)NC(=O)[C@H](CCCCN)NC(=O)[C@@H](NC(=O)[C@H](CCCCN)NC(=O)[C@H](CC(N)=O)NC(=O)[C@H](Cc1ccccc1)NC(=O)[C@H](Cc1ccccc1)NC(=O)[C@H](CCC(N)=O)NC(=O)[C@H](CCCCN)NC(=O)[C@H](CC(C)C)NC(=O)[C@@H](NC(=O)[C@@H]1CCCN1C(=O)[C@H](CCC(N)=O)NC(=O)[C@@H]1CCCN1C(=O)[C@H](CCC(=O)O)NC(=O)[C@@H](N)CCC(N)=O)C(C)C)[C@@H](C)CC)[C@@H](C)CC)C(=O)N[C@@H](CCCCN)C(=O)N[C@@H](CCC(=O)O)C(=O)NCC(=O)NCC(=O)N[C@@H](CCCCN)C(=O)N[C@@H](CCCNC(=N)N)C(=O)N[C@@H](CC(C)C)C(=O)N[C@@H](CC(C)C)C(=O)NCC(=O)O [CRAMP rev] (H-QEPQPVLKQFFNKIKQGIKKLKEGIKEGGKRLLG-OH)
MIC (mg/L) KN99α 24 h [1, 4]: 4 to 8 mg/L | MIC (μmol/L) KN99α 24 h [1, 4]: 1.0 to 2.1 µmol/L | MIC (μmol/L) KN99α 48 h [1]: 2.1 µmol/L (≈ 8.15 µg/mL) | MIC (μmol/L) H99 24 h [2]: 1.0 µmol/L (≈ 3.88 µg/mL) | MIC (μmol/L) H99 48 h ([2]; H99 (serotype A, 48 h)): 2.1 µmol/L (≈ 8.15 µg/mL) | MIC (μmol/L) 1841 24 h [3, 5]: 1.0 µmol/L (≈ 3.88 µg/mL) | MIC (μmol/L) 1841 48 h [3, 6]: 2.1 µmol/L (≈ 8.15 µg/mL)

CC[C@H](C)[C@H](NC(=O)[C@H](Cc1ccc(O)cc1)NC(=O)[C@@H](NC(=O)[C@@H]1CCCN1C(=O)[C@H](CCCNC(=N)N)NC(=O)[C@H](CC(N)=O)NC(=O)[C@H](CC(N)=O)NC(=O)[C@H](CCCNC(=O)c1ccc2c(c1)C(=O)OC21c2ccc(O)cc2Oc2cc(O)ccc21)N=C(N(C)C)N(C)C)C(C)C)C(=O)N1CCC[C@H]1C(=O)N[C@@H](CCCNC(=N)N)C(=O)N1CCC[C@H]1C(=O)N[C@@H](CCCNC(=N)N)C(=O)N1CCC[C@H]1C(=O)N1CCC[C@H]1C(=O)N[C@@H](Cc1c[nH]cn1)C(=O)N1CCC[C@H]1C(=O)N[C@@H](CCCNC(=N)N)C(=O)N[C@@H](CC(C)C)C(=O)O [Cf-Api137] (5FAM-[δOrn(α-TMG)]NNRPVYIPRPRPPHPRL-OH)
MIC (mg/L) 24 h, Cf-labeled peptides [3]: > 64 mg/L | MIC (after 48 h) [3]: 28 µM (≈ 74.2 µg/mL) | MIC (mg/L) 48 h, Cf-labeled peptides [3]: > 64 mg/L | activity of Cf-labeled peptide relative to the corresponding unlabeled peptide ([3]; C. neoformans 1841): slightly less active

gu-OIOIORPVYOPRPRPPHPRR-OH [Api813]
MIC (mg/L) KN99α 24 h [1, 7]: 4 to 8 mg/L | MIC (mg/L) KN99α 48 h [1, 8]: 8 mg/L | MIC (mg/L) H99 24 h [2, 7]: 4 mg/L | MIC (mg/L) H99 48 h [2, 8]: 4 to 8 mg/L | MIC (μmol/L) 1841 24 h ([3]; broth microdilution, 50% SAB in phosphate buffer pH 7.5, 5 × 10^4 CFU/mL, 30°C, read after 24 h, mean of six replicates (n = 6)): 3.1 µmol/L | MIC (μmol/L) 1841 48 h ([3]; broth microdilution, 50% SAB in phosphate buffer pH 7.5, 5 × 10^4 CFU/mL, 30°C, read after 48 h, n = 6): 3.1 µmol/L | MIC (mg/L) 1841 24 h [3, 7]: 8 mg/L | MIC (mg/L) 1841 48 h [3, 8]: 8 mg/L
